Assays:
[1] = tested on: patients with mild-to-moderate persistent atopic asthma; test: FEV1 AUC30min-23h30min post-dose, phase II study; type: in vivo, human
Source text: (§1) FEV1. Briefly. Spirometry measurements will be performed using spirometry equipment which meets or exceeds the minimal performance recommendations of the ATS/ERS standards (Miller M. R et al, Standardisation of spirometry, Eur Respir J 2005; 26: 319-338). Calibration and quality control should be performed before the site initiation: • a. A 3L syringe will be used to verify spirometer accuracy. • b. The accuracy of the syringe should be certified within the last 12 months and should have an accuracy of ± 15 ml. • c. Before use, the syringe should be maintained at the same temperature as the spirometer to ensure volume stability. • d. For volume-type spirometers, a calibration and leak check must be performed before each testing session according to the manufacturer’s guidelines. A calibration report stored in the site’s source documents is required to confirm the adherence to guidelines. Example of spirometry equipment used in the trial: Jaeger and ERT Spirosphere.
(§2) Secondary objectives include determinations of FEV1 area under the curve (AUC), evaluations on pre- and post- bronchodilator FEV1, and patient reported outcomes (PROs) including Asthma Control Questionnaire-7 (ACQ-7) and Standardized Asthma Quality of Life Questionnaire (AQLQ(S)).

[2] = tested on: allergic/atopic asthmatics; test: Safety / adverse events, phase II study; type: in vivo, human; settings: safety population
Procedure: (§3) The present trial is an exploratory study aiming at evaluating the safety, tolerability, and efficacy of a 15-day, once daily administration of 10 mg Compound (I) in subjects with persistent mild-to-moderate atopic asthma. In terms of exploratory efficacy, the primary purpose of this study is to determine whether Compound (I) compared to placebo, improves the FEV1, as well as to provide comparative safety data from this population of asthmatics. Measurements made in this study will also be used to establish whether this treatment improves other variables related to asthma control and lung function.
Of the 107 subjects who were screened, 63 (58.9%) met eligibility criteria and were randomized. Of the 63 patients who were randomized, 63 (100%) completed the study (32 and 31 in the Compound (l) and placebo groups, respectively). There were not adverse events for discontinuation. The safety population included 63 (placebo: n=31 and Compound (l): n=32). Results are based on the per protocol population (placebo: n= 27 and Compound (l): n= 31).
The data highlight the potential of the adenosine A1 receptor antagonist Compound (l) as a promising oral asthma therapy. The safety set included all randomized patients who received at least one dose of any study drug.

[3] = tested on: patients with mild-to-moderate persistent atopic asthma; test: Trough FEV1 (spirometry), phase II placebo-controlled study; type: in vivo, human; settings: for FEV1 LS means difference vs Placebo, Eosinophils category High, Estimate (SE): eosinophils High at V1, p 0.0164; for FEV1 LS means difference vs Placebo, Eosinophils category Low, Estimate (SE): eosinophils Low at V1, p 0.7778
Procedure: (§4) Eosinophils in S.I units (10^9/L) will be converted in cel/µL with the conversion factor 1 × 10^9/L =1000 cel/µL. The primary efficacy analysis on Per Protocol Population was stratified into 2 subgroups based on Eosinophils (cel/ µL) value at visit V1 from Hematology (Low < 300 cel/ µL, and High >=300 cel/ µL). Trough FEV1 on day 16 (+4-day leeway) was summarized by treatment arm and Eosinophils value at visit V1. A mixed model with FEV1 measurements on day 16 (23 h 15 min and 23 h 45 min post-dose), containing treatment arm and Eosinophils strata as fixed effects, site as random effect with baseline FEV1 on visit V5 as a covariate was fitted.
as §1, §3
(§5) A phase II, double-blind, randomized, parallel-group, placebo-controlled multi-center study to investigate the effect of the adenosine A1 receptor antagonist Compound (I) on forced expiratory volume in 1 second (FEV1) in patients with mild-to-moderate persistent atopic asthma.
as §2
A mixed model with FEV1 measurements on day 16 (23 h 15 min and 23h 45 min post-dose), containing treatment arm as a fixed effect, site as random effect with baseline FEV1 on visit V5 as a covariate was fitted. The treatment effect was larger for Compound (l) group compared to placebo, increasing the FEV1 on 180 mL (p= 0.0816).
FEV1: forced expiratory volume in 1 second; SD: standard deviation; SE: standard error; min: minimum; max: maximum; LS: least squares; Cl: confidence interval. Trough FEV1 on day 16 (+4-day leeway), defined as the average of the FEV1 measurements taken at 23 h15 min and 23 h45 min post-dose.

[4] = tested on: patients with mild-to-moderate persistent atopic asthma; test: Asthma Control Questionnaire-7 (ACQ-7), phase II study; type: in vivo, human; settings: mixed model, days 8 and 15, effect: treatment; p 0.0430
Source text: as §2
Table 7 and FIG. 5. Similar trend was observed when comparing Visit and Study Arm* Visit as covariate.

[5] = tested on: patients with mild-to-moderate persistent atopic asthma; test: Peripheral blood eosinophil count, phase II placebo-controlled study; type: in vivo, human; settings: 10 mg once daily
Source text: Eosinophil count. Peripheral blood eosinophil counts were obtained from standard complete blood counts done at every centre participating in the study. For example, by using standardized methods on a Beckman Coulter LH series analyzer (Beckman Coulter Ltd, Brea, CA, USA), Negewo, N. A. et al, Peripheral blood eosinophils: a surrogate marker for airway eosinophilia in stable COPD, Int J Chron Obstruct Pulmon Dis. 2016; 11: 1495-1504).
as §4, §3, §5
The study comprises: (i) a minimum of 5-days screening period, during which the subject’s clinical stability and overall eligibility for the study will be assessed; (ii) a weaning phase where a stepwise tapering of the asthma medication will be done upon 7-day periods; (iii) the randomized, parallel-arm treatment period; and (iv) an end-of-study follow-up visit. The asthma medication weaning period comprises three possible visit pathways in order to adjust for each subject’s asthma therapy on study entry. The study comprises a primary analysis population of 58 stable asthmatic subjects managed as described for the objectives, who meet all inclusion criteria and no exclusion criteria and complete a full, valid data set for the primary variable.

COPD patients [6] = settings: baseline sputum eosinophils ≥3%; cited from earlier work
Brown Norway rats = settings: orally administered, antigen induced; cited from earlier work
[7] = tested on: chronic obstructive pulmonary disease; settings: 16-week trial; cited from earlier work
TNFalpha = settings: rat; cited from earlier work
COPD patients [8] = settings: raised baseline eosinophils; cited from earlier work
[9] = change from baseline, 10 mg, N=31

N#Cc1sc(NC(=O)[C@H]2CC[C@@H](C(=O)O)C2)nc1-c1ccccc1 [Compound (I), (1R,3S)-3-((5-cyano-4-phenylthiazol-2-yl)carbamoyl)cyclopentane-1-carboxylic acid]
FEV1 AUC30min-23h30min post-dose through days 15-to-16, Mean [1, 9]: 4.9 | FEV1 AUC30min-23h30min post-dose through days 15-to-16, Median [1, 9]: 5.7 | FEV1 AUC30min-23h30min post-dose through days 15-to-16, Mean difference vs Placebo (90% Cl) ([1]; p 0.0435): 3.6 (0.96) | serious adverse events ([2]; 10 mg once daily 15 days): no serious AEs reported | severity of most adverse events ([2]; both groups): mild/moderate | increase of trough FEV1 [3]: 110 to 200 mL | Trough FEV1 day 16 (+4-day leeway), LS mean ([3]; 10 mg once daily 15 days, N=31, baseline mean 2.7): 3.1 L | Trough FEV1 day 16 (+4-day leeway), LS mean difference vs. Placebo ([3]; 10 mg once daily 15 days, p 0.0816): 0.18 L | FEV1 LS means difference vs Placebo, Eosinophils category High, Estimate (SE) [3]: 0.38 L | FEV1 LS means difference vs Placebo, Eosinophils category High, Estimate (SE) ([3]; listed as COMPOUND (I)): 0.38 (0.15) L | FEV1 LS means difference vs Placebo, Eosinophils category Low, Estimate (SE) [3]: 0.04 L | FEV1 LS means difference vs Placebo, Eosinophils category Low, Estimate (SE) ([3]; listed as COMPOUND (I)): 0.04 (0.15) L | FEV1 LS means differences in study arm vs Placebo, Estimate (SE) ([3]; mixed model with eosinophils strata, p 0.0596): 0.21 (0.11) L | FEV1 LS means, Estimate (SE), Eosinophils category High ([3]; mixed model, trough FEV1 day 16, eosinophils High at visit V1, per protocol): 3.06 (0.11) L | FEV1 LS means, Estimate (SE), Eosinophils category Low ([3]; mixed model, trough FEV1 day 16, eosinophils Low at visit V1, per protocol): 3.04 (0.12) L | treatment effect, increase of FEV1 compared to placebo ([3]; trough FEV1 day 16, mixed model, p= 0.0816): 180 mL | ACQ-7 overall score, Mean difference vs Placebo (90% Cl) [4]: -0.28 | Eosinophilic Count on Visit V7 (day 15), Mean ([5]; 15 days, per protocol population, N=30, baseline mean 392.9): 218 cel/ µL | Eosinophilic Count on Visit V7 (day 15), Median ([5]; 15 days, per protocol population, N=30, baseline median 370.0): 150.0 cel/ µL | Eosinophilic Count, Absolute Change from Baseline, Mean difference vs Placebo (90% Cl) ([5]; day 15): -233.9 (-Inf, -174.6) cel/ µL | Eosinophilic Count, Relative Change from Baseline, Mean difference vs Placebo (90% Cl) ([5]; day 15, p-value <0.0001): -68.0 (-Inf, -51.95) | Eosinophilic Count, Absolute Change from Baseline, Mean ([5]; day 15 vs visit V5): -184.7 cel/ µL | Eosinophilic Count, Absolute Change from Baseline, Median ([5]; day 15 vs visit V5): -195.0 cel/ µL | Eosinophilic Count, Relative Change from Baseline, Mean ([5]; day 15 vs visit V5): -46.8 | Eosinophilic Count, Relative Change from Baseline, Median ([5]; day 15 vs visit V5): -64.9

benralizumab: humanized, afucosylated, monoclonal antibody targeting the IL5-receptor α-chain
improvements in exacerbation rates, SGRQ-C, CRQ-SAS scores and FEV1 (COPD patients [6]): not statistically significant

O=C(Nc1c(Cl)cncc1Cl)c1ccc(OC(F)F)c(OCC2CC2)c1 [Roflumilast]
bronchoalveolar lavage fluid (BALF) eosinophilia (Brown Norway rats): inhibited | blood eosinophils [7]: not in the blood eosinophils | eosinophils in sputum and bronchial biopsy samples [7]: significant reduction | LPS-induced circulating TNFalpha (TNFalpha): abrogated

B1: mepolizumab: anti-IL-5 monoclonal antibody (antibody, chains of the INN, looked up, V domains shown)
VH: QVTLRESGPALVKPTQTLTLTCTVSGFSLTSYSVHWVRQPPGKGLEWLGVIWASGGTDYNSALMSRLSISKDTSRNQVVLTMTNMDPVDTATYYCARDPPSSLLRLDYWGRGTPVTVSS
VL: DIVMTQSPDSLAVSLGERATINCKSSQSLLNSGNQKNYLAWYQQKPGQPPKLLIYGASTRESGVPDRFSGSGSGTDFTLTISSLQAEDVAVYYCQNVHSFPFTFGGGTKLEIK
sputum and blood eosinophil counts compared with placebo (COPD patients [8]): significantly reduced
